“Also recorded” adds a separate entry of the source.
Key:
KCNQ2/3 [1] = target: T1, KCNQ2/3 (Homo sapiens, UniProt O43525+O43526); settings: cited from earlier work
KCNQ2/3 [2] = target: T1, KCNQ2/3; experiment: TEVC of heteromeric KCNQ2/3 channels expressed in Xenopus laevis oocytes; type: cell-based; settings: for effect on voltage dependence of KCNQ2/3 activation, screen of M. oppositifolius leaf compounds: 100 μM, MTX and palmitic acid 30 μM
Source text: (§1) cRNA transcripts encoding human KCNA1, KCNQ1, KCNQ2, KCNQ3, KCNQ4, or KCNQ5 were generated by in vitro transcription using the T7 polymerase message machine kit (Thermo Fisher Scientific), after vector linearization, from cDNA sub-cloned into plasmids incorporating X. laevis β-globin 5′ and 3′ UTRs flanking the coding region to enhance translation and cRNA stability. cRNA was quantified by spectrophotometry. Mutant cDNAs were generated by site-directed mutagenesis using a QuikChange kit according to manufacturer's protocol (Stratagene, San Diego, Calif.) and corresponding cRNAs prepared as above. Defolliculated stage V and VI X. laevis oocytes (Ecocyte Bioscience, Austin, Tex.) were injected with Kv channel a subunit cRNAs (10 ng total per oocyte). Oocytes were incubated at 16° C. in Barth's saline solution (Ecocyte) containing penicillin and streptomycin, with daily washing, for 3-5 days prior to two-electrode voltage-clamp (TEVC) recording.
TEVC recording was performed at room temperature with an OC-725C amplifier (Warner Instruments, Hamden, Conn.) and pClamp10.2 software (Molecular Devices, Sunnyvale, Calif.) 3-5 days after cRNA injection as described in the section above. Oocytes were placed in a small-volume oocyte bath (Warner) and viewed with a dissection microscope. Chemicals were sourced from Sigma. Bath solution was (in mM): 96 NaCl, 4 KCl, 1 MgCl2, 1 CaCl2. 10 HEPES (pH 7.6). […] MTX (DMSO), sorbic acid (ethanol), and glutaconic acid (molecular grade H2O) were stored at −20° C. as 1 M stocks. Oleamide was stored as a 1 mM stock in ethanol at 4° C. Palmitic acid was conjugated with bovine serum albumin as a 1 mM stock and stored at −20° C. All compounds were diluted to working concentrations each experimental day. All compounds were introduced to the recording bath via gravity perfusion at a constant flow of 1 ml/min for 3 min prior to recording. Pipettes were of 1-2 MΩ resistance when filled with 3 M KCl. Currents were recorded in response to pulses between −80 and +40 mV at 20 mV intervals, or a single pulse to +40 mV, from a holding potential of −80 mV, to yield current-voltage relationships, current magnitude, and for quantifying activation rate. TEVC data analysis was performed with Clampfit10.2 (Molecular Devices) and Graphpad Prism software (GraphPad, San Diego, Calif., USA); values are stated as mean±SEM. Normalized tail currents were plotted versus prepulse voltage and fitted with a single Boltzmann function: […]
cRNA transcripts encoding human KCNQ2, KCNQ3, KCNQ4, KCNQ5 (Kv7.2-Kv7.5) were generated by in vitro transcription using the T7 polymerase mMessage mMachine kit (Thermo Fisher Scientific), after vector linearization, from cDNA sub-cloned into plasmids incorporating Xenopus laevis β-globin 5′ and 3′ UTRs flanking the coding region to enhance translation and cRNA stability. cRNA was quantified by spectrophotometry. Mutant KCNQ2 and KCNQ3 cDNAs were generated with site-directed mutagenesis using a QuikChange kit according to the manufacturer's protocol (Stratagene, San Diego, Calif.) and corresponding cRNAs prepared as above.

KCNQ3* (KCNQ3-A315T) = KCNQ3* (KCNQ3-A315T) (Homo sapiens, UniProt O43525, A315T); experiment: TEVC of homomeric KCNQ3* expressed in Xenopus oocytes; type: cell-based
Source text: as §1
(§2) TEVC recording was performed at room temperature with an OC-725C amplifier (Warner Instruments, Hamden, Conn.) and pClamp10.2 software (Molecular Devices, Sunnyvale, Calif.) 3-5 days after cRNA injection as described in the section above. Oocytes were placed in a small-volume oocyte bath (Warner) and viewed with a dissection microscope. Chemicals were sourced from Sigma. Bath solution was (in mM): 96 NaCl, 4 KCl, 1 MgCl2, 1 CaCl2. 10 HEPES (pH 7.6). […] MTX (DMSO), sorbic acid (ethanol), and glutaconic acid (molecular grade H2O) were stored at −20° C. as 1 M stocks. Oleamide was stored as a 1 mM stock in ethanol at 4° C. Palmitic acid was conjugated with bovine serum albumin as a 1 mM stock and stored at −20° C. All compounds were diluted to working concentrations each experimental day. All compounds were introduced to the recording bath via gravity perfusion at a constant flow of 1 ml/min for 3 min prior to recording. Pipettes were of 1-2 MΩ resistance when filled with 3 M KCl. Currents were recorded in response to pulses between −80 and +40 mV at 20 mV intervals, or a single pulse to +40 mV, from a holding potential of −80 mV, to yield current-voltage relationships, current magnitude, and for quantifying activation rate. TEVC data analysis was performed with Clampfit10.2 (Molecular Devices) and Graphpad Prism software (GraphPad, San Diego, Calif., USA); values are stated as mean±SEM. Normalized tail currents were plotted versus prepulse voltage and fitted with a single Boltzmann function:
(§3) cRNA transcripts encoding human KCNQ2, KCNQ3, KCNQ4, KCNQ5 (Kv7.2-Kv7.5) were generated by in vitro transcription using the T7 polymerase mMessage mMachine kit (Thermo Fisher Scientific), after vector linearization, from cDNA sub-cloned into plasmids incorporating Xenopus laevis β-globin 5′ and 3′ UTRs flanking the coding region to enhance translation and cRNA stability. cRNA was quantified by spectrophotometry. Mutant KCNQ2 and KCNQ3 cDNAs were generated with site-directed mutagenesis using a QuikChange kit according to the manufacturer's protocol (Stratagene, San Diego, Calif.) and corresponding cRNAs prepared as above. Defolliculated stage V and VI Xenopus laevis oocytes (Ecocyte Bioscience, Austin, Tex.) were injected with KCNQ channel α subunit cRNAs (5-10 ng). The oocytes were incubated at 16° C. in Barth's saline solution (Ecocyte) containing penicillin and streptomycin, with daily washing, for 2-5 days prior to two-electrode voltage-clamp (TEVC) recording.
(§4) TEVC recording was performed at room temperature using a OC-725C amplifier (Warner Instruments, Hamden, Conn.) and pClamp8 software (Molecular Devices, Sunnyvale, Calif.) 2-5 days after cRNA injection as described in the section above. The oocytes were placed in a small-volume oocyte bath (Warner) and viewed with a dissection microscope. Unless otherwise stated, chemicals were sourced from Sigma. Bath solution was (in mM): 96 NaCl, 4 KCl, 1 MgCl2, 1 CaCl2, 10 HEPES (pH 7.6).

KCNQ4 = KCNQ4 (Homo sapiens, UniProt P56696); experiment: TEVC of homomeric KCNQ4 expressed in Xenopus oocytes; type: cell-based
Source text: as §1, §2, §3, §4

KCNQ5 = KCNQ5 (Homo sapiens, UniProt Q9NR82); experiment: TEVC of homomeric KCNQ5 expressed in Xenopus oocytes; type: cell-based
Source text: as §1, §2, §3, §4

KCNQ1 = KCNQ1 (Homo sapiens, UniProt P51787); experiment: TEVC of homomeric KCNQ1 expressed in Xenopus oocytes; type: cell-based; settings: Example 4; read-out: EC50, ΔV0.5act of KCNQ1
Description: Oocytes were placed in a small-volume oocyte bath (Warner) and viewed with a dissection microscope. Chemicals were sourced from Sigma. Bath solution was (in mM): 96 NaCl, 4 KCl, 1 MgCl2, 1 CaCl2. 10 HEPES (pH 7.6). […] MTX (DMSO), sorbic acid (ethanol), and glutaconic acid (molecular grade H2O) were stored at −20° C. as 1 M stocks. Oleamide was stored as a 1 mM stock in ethanol at 4° C. Palmitic acid was conjugated with bovine serum albumin as a 1 mM stock and stored at −20° C. All compounds were diluted to working concentrations each experimental day. All compounds were introduced to the recording bath via gravity perfusion at a constant flow of 1 ml/min for 3 min prior to recording. Pipettes were of 1-2 MΩ resistance when filled with 3 M KCl. Currents were recorded in response to pulses between −80 and +40 mV at 20 mV intervals, or a single pulse to +40 mV, from a holding potential of −80 mV, to yield current-voltage relationships, current magnitude, and for quantifying activation rate. […]

KCNQ2 = KCNQ2 (Homo sapiens, UniProt O43526); experiment: TEVC of homomeric KCNQ2 expressed in Xenopus oocytes; type: cell-based; settings: Example 4; read-out: EC50, ΔV0.5act of KCNQ2
Source text: as §1, §2, §3, §4

[3] = test system: pentylene tetrazole-induced seizures; experiment: PTZ chemoconvulsant assay; type: in vivo, mouse
Source text: We compared anticonvulsant activities of test compounds in male C57BL/6 mice (Charles River) aged 2-3 months. Mice were housed and used according to the recommendations in the Guide for the Care and Use of Laboratory Animals of the National Institutes of Health (NIH Publication, 8th edition, 2011). The study protocol was approved by the Institutional Animal Care and Use Committee of University of California, Irvine, which confirmed that all relevant ethical regulations were adhered to. Chemicals were sourced from Sigma (St. Louis, Mo., USA). A pentylene tetrazole (PTZ) chemoconvulsant assay was used-. […] Following the PTZ injection, mice were caged individually and an observer (GWA) blinded to the drug used recorded, over 20 min, clonic and tonic seizure incidence, and seizure-related mortality.
We quantified the anticonvulsant activities of (E)-2-dodecenal and tridecanal in male C57BL/6 mice (Charles River, Wilmington, Mass.) aged 2-3 months. The mice were housed and used according to the recommendations in the Guide for the Care and Use of Laboratory Animals of the National Institutes of Health (NIH Publication, 8th edition, 2011). The study protocol was approved by the Institutional Animal Care and Use Committee of University of California, Irvine. The chemicals were sourced from Sigma (St. Louis, Mo., USA). We used a pentylene tetrazole (PTZ) chemoconvulsant assay as we previously described (30). We injected the mice intraperitoneally with (E)-2-dodecenal (2 or 20 mgkg^−1) (with or without 2.5 mgkg^−1 XE991) or tridecanal (20 mgkg^−1) solubilized in PBS, or vehicle control (PBS), and then 30 minutes later we injected mice intraperitoneally with 80 mgkg-PTZ. Following the PTZ injection, the mice were caged individually and an observer (GWA) blinded to the experimental condition timed the latency to first seizure.
We compared anticonvulsant activities of 3FMSG in male C57BL/6 mice (Charles River) aged 2-3 months. Mice were housed and used according to the recommendations in the Guide for the Care and Use of Laboratory Animals of the National Institutes of Health (NIH Publication, 8th edition, 2011). The study protocol was approved by the Institutional Animal Care and Use Committee of University of California, Irvine, which confirmed that all relevant ethical regulations were adhered to. Chemicals were sourced from Sigma (St. Louis, Mo., USA). We used a pentylene tetrazole (PTZ) chemoconvulsant assay as we previously described^27. Mice were injected intraperitoneally with 3FMSG (5 mg kg^−1) or vehicle control (PBS) and then 30 minutes later injected intraperitoneally with 80 mg kg^−1 PTZ. Following the PTZ injection, mice were caged individually and an observer (GWA) blinded to the drug used recorded seizure activity over 20 minutes.

KCNQ2-W236L/KCNQ3-W265L = KCNQ2-W236L/KCNQ3-W265L (Homo sapiens, UniProt O43525+O43526, W236L/W265L); experiment: TEVC of double-mutant WL/WL KCNQ2/3 channels; type: cell-based
Source text: as §1
TEVC recording was performed at room temperature with an OC-725C amplifier (Warner Instruments, Hamden, Conn.) and pClamp10.2 software (Molecular Devices, Sunnyvale, Calif.) 3-5 days after cRNA injection as described in the section above. Oocytes were placed in a small-volume oocyte bath (Warner) and viewed with a dissection microscope. Chemicals were sourced from Sigma. Bath solution was (in mM): 96 NaCl, 4 KCl, 1 MgCl2, 1 CaCl2. 10 HEPES (pH 7.6). […] Currents were recorded in response to pulses between −80 and +40 mV at 20 mV intervals, or a single pulse to +40 mV, from a holding potential of −80 mV, to yield current-voltage relationships, current magnitude, and for quantifying activation rate. […]
cRNA transcripts encoding human KCNQ2, KCNQ3, KCNQ4, KCNQ5 (Kv7.2-Kv7.5) were generated by in vitro transcription using the T7 polymerase mMessage mMachine kit (Thermo Fisher Scientific), after vector linearization, from cDNA sub-cloned into plasmids incorporating Xenopus laevis β-globin 5′ and 3′ UTRs flanking the coding region to enhance translation and cRNA stability. cRNA was quantified by spectrophotometry. […]

## CCCCC(=O)O [valeric acid]
KCNQ2/3 [1]
  KCNQ2/3 activation (previously found): inactive

## CCCCCCCC/C=C\CCCCCCCC(N)=O [oleamide]
KCNQ2/3 [2]
  effect on KCNQ2/3 activity (in words): slightly increased KCNQ2/3 currents at higher voltages

## NC(C(=O)O)c1ccc(F)cc1 (stereo not drawn) [4FPG, 4-(fluorophenyl)glycine]
KCNQ3* (KCNQ3-A315T)
  effect on KCNQ3* (in words): no effects
KCNQ4; Example 4, read-out: EC50, ΔV0.5act of KCNQ4
  EC50: 0.049 ± 0.012 µM
KCNQ5
  effect on KCNQ5 (in words): no effects
KCNQ1
  EC50: 0.09 ± 0.02 µM
KCNQ2
  EC50: 0.069 ± 0.031 µM
KCNQ2/3 [2]; Example 4, read-out: EC50, shift in voltage dependence of KCNQ2/3 activation (ΔV0.5act)
  EC50: 0.061 ± 0.042 µM

## NCCCC(=O)O [GABA, γ-aminobutyric acid, reference compound]
KCNQ4
  effect on KCNQ4 (in words): unable to open

## CCCCCCCCCCCCC=O [tridecanal, reference compound]
[3]; 20 mgkg−1 i.p.
  latency to first PTZ-induced seizure: no effect
KCNQ2/3 [2]
  effect on KCNQ2/3 activity (in words): KCNQ2/3-inactive

## O=C(O)C=CCC(=O)O [glutaconic acid]
KCNQ2/3 [2]
  effect on voltage dependence of KCNQ2/3 activation, screen of M. oppositifolius leaf compounds: negative-shifted

## O=C(Nc1cnc(Cl)nc1)c1ccc(F)c(F)c1 [ICA-069673]
KCNQ2/3 [1]
  selectivity KCNQ2/3 versus KCNQ3/5 activation: 20 fold

## O=C(Nc1ccc(Cl)nc1)c1ccc(F)c(F)c1 [ICA-27243]
KCNQ2/3 [1]
  potency at opening KCNQ2/3 versus KCNQ4: > 20 fold

## O=C1c2ccccc2C(Cc2ccncc2)(Cc2ccncc2)c2ccccc21 [XE991]
[3]; XE991 2.5 mgkg−1 with (E)-2-dodecenal 20 mgkg−1
  latency to first PTZ-induced seizure: eliminated the protective effect
KCNQ2/3 [2]; after wash-in of MTX or gabapentin
  inhibition of activator-augmented KCNQ2/3 current: rapidly inhibited; also recorded: completely inhibited

## CCCCCCCCCCCCCCCC(=O)O [palmitic acid]
KCNQ2/3 [2]
  effect on voltage dependence of KCNQ2/3 activation, screen of M. oppositifolius leaf compounds: negative-shifted

## Oc1ccccc1S [2-mercaptophenol]
KCNQ2-W236L/KCNQ3-W265L
  effect on WL/WL KCNQ2/3 (in words): insensitive
KCNQ2/3 [2]
  concentration from which KCNQ2/3 is inhibited: ~100 µM
  effect of co-applied compound (100 μM) on KCNQ2/3 activation by MTX (30 μM) or IVA (500 μM): did not alter
  effect on KCNQ2/3 activity (in words): inhibits; also recorded: inhibitory at higher doses
  effect on voltage dependence of KCNQ2/3 activation, screen of M. oppositifolius leaf compounds: positive-shifted

## NCC(O)CC(=O)O (stereo not drawn) [GABOB, γ-Amino-β-hydroxybutyric acid]
KCNQ2/3 [2]
  effect of co-applied compound (100 μM) on KCNQ2/3 activation by MTX (30 μM) or IVA (500 μM): only partially diminishes; also recorded: highly effective at competing out

## CC(C)C[C@H](CN)CC(=O)O [pregabalin]
KCNQ2/3 [2]
  concentration from which KCNQ2/3 is inhibited: ≥ 10 µM
  effect on KCNQ2/3 activity (in words): does not activate; also recorded: no augmenting effect
  effect on KCNQ2/3 gating kinetics: no effects
KCNQ2/3 [2]; unclamped oocytes
  shift of membrane potential (EM) of KCNQ2/3-expressing oocytes: failed to shift

Source: US12268683B2, “Compounds and methods for synergistic activation of M channels” (THE REGENTS OF THE UNIVERSITY OF CALIFORNIA, priority 2018, dated 2025)
